# Measurements published in ChEMBL document CHEMBL1146289, “1,5-Biaryl pyrrole derivatives as EP1 receptor antagonists: Structure-activity relationships of 4- and 5-substituted benzoic acid derivatives” (Bioorg Med Chem Lett, 2007).
# Legend:
# [1] = target: T1, Prostaglandin E2 receptor EP1 subtype (Homo sapiens, UniProt P34995); test: Displacement of [3H]PGE2 from human recombinant EP1 receptor expressed in CHO cell membranes
# T1 sequence (P34995 whole entry): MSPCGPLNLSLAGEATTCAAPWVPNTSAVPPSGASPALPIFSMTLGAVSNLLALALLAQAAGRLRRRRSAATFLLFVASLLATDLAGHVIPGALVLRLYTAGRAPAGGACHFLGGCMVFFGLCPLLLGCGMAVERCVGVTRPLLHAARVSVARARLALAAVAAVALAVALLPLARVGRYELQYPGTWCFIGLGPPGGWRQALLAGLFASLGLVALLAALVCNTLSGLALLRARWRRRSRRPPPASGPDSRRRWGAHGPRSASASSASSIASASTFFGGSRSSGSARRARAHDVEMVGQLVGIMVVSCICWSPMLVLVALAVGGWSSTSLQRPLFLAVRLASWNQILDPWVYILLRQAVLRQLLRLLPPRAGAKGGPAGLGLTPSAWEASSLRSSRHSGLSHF
# Rattus norvegicus [2] = test: AUC (0-t) in rat at 3 mg/kg, po; format: ADME, organism-based, Plasma; set-up: dose 3 mg/kg, route oral; conditions: in vivo
# [3] = Cmax in rat at 3 mg/kg, po; format: ADME, organism-based; set-up: dose 3 mg/kg, route oral; conditions: in vivo
# Rattus norvegicus [4] = test: Reversal of hypersensitivity in rat FCA model of inflammatory pain at 5 mg/kg, po; format: functional
# [5] = Tmax in rat at 3 mg/kg, po; format: ADME, organism-based; set-up: dose 3 mg/kg, route oral; conditions: in vivo
# Cytochrome P450 2D6 = Cytochrome P450 2D6 (Homo sapiens, UniProt P10635); test: Inhibition of CYP2D6; format: ADME
# Thromboxane A2 receptor = target: T2, Thromboxane A2 receptor (Homo sapiens, UniProt P21731); test: Inhibition of TP receptor
# T2 sequence (P21731 whole entry): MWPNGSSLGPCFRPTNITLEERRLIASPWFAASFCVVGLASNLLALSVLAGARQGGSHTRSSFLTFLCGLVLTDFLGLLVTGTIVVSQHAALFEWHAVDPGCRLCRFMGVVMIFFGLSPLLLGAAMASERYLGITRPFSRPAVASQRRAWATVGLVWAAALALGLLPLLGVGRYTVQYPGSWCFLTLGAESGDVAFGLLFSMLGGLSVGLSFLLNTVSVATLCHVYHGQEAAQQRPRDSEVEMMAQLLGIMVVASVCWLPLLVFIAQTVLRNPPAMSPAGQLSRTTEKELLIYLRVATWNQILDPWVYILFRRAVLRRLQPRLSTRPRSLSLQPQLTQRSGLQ
# Cytochrome P450 2C9 = Cytochrome P450 2C9 (Homo sapiens, UniProt P11712); test: Inhibition of CYP2C9; format: ADME
# Rattus norvegicus [6] = species on record: Rattus norvegicus; test: Reversal of hypersensitivity in rat FCA model of inflammatory pain; format: functional
# Cytochrome P450 2C19 = Cytochrome P450 2C19 (Homo sapiens, UniProt P33261); test: Inhibition of CYP2C19; format: ADME
# [7] = target: T3, Thromboxane A2 receptor (Homo sapiens) (UniProt P21731)
# T3 sequence (whole entry): T2 sequence (P21731 whole entry)
# [8] = target: T1, Prostaglandin E2 receptor EP1 subtype; test: Inhibition of EP1 receptor expressed in CHO cells assessed as calcium mobilization by FLIPR assay; format: functional, cell-based
# [9] = target: Prostaglandin E2 receptor EP4 subtype (Homo sapiens, UniProt P35408); test: Inhibition of EP4 receptor
# [10] = target: T4, Prostaglandin E2 receptor EP3 subtype (Homo sapiens, UniProt P43115); test: Inhibition of EP3 receptor expressed in CHO cells assessed as calcium mobilization by FLIPR assay; format: functional, cell-based
# T4 sequence (P43115 whole entry): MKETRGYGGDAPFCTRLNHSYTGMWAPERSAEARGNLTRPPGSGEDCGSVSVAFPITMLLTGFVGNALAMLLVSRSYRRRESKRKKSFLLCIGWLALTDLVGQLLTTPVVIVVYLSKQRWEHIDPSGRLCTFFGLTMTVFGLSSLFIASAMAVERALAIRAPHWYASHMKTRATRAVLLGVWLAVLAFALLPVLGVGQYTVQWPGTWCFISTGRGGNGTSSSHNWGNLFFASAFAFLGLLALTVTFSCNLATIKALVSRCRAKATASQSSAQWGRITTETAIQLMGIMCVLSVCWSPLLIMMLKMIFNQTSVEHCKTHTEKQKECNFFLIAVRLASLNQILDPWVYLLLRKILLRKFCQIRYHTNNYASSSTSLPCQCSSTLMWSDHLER
# Cytochrome P450 3A4 = Cytochrome P450 3A4 (Homo sapiens, UniProt P08684); test: Inhibition of CYP3A4; format: ADME
# Cytochrome P450 1A2 = target: T5, Cytochrome P450 1A2 (Homo sapiens, UniProt P05177); test: Inhibition of CYP1A2; format: ADME
# T5 sequence (P05177 whole entry): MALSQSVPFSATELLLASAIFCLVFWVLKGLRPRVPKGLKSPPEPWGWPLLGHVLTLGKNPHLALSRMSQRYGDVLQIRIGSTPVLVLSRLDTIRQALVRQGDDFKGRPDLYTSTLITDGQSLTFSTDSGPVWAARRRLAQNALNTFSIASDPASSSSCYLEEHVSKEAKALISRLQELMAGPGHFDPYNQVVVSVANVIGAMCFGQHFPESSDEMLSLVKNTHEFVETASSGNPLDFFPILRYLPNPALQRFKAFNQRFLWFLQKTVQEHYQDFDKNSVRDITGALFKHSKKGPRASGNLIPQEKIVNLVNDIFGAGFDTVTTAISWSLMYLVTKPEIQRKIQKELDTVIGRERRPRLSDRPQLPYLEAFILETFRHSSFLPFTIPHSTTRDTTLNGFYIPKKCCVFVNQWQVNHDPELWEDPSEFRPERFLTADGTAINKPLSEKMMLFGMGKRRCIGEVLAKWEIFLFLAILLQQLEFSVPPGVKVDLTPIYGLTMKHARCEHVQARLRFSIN
# Prostaglandin E2 receptor EP4 subtype, sequence (P35408 whole entry): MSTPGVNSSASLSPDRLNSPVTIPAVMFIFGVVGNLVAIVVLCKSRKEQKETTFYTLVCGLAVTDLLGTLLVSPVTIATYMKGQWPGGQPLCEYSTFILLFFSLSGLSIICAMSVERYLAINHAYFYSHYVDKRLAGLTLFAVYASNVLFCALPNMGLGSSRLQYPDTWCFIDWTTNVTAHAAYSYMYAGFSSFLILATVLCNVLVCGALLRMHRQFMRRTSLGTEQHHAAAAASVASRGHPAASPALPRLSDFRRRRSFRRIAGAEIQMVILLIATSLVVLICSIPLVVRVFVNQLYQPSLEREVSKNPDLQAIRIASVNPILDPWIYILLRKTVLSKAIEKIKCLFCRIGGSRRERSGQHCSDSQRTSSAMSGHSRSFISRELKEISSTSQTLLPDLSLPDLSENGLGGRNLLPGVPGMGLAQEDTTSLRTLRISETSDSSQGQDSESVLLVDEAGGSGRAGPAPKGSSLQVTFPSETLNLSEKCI
# Cytochrome P450 2C19, sequence (P33261 whole entry): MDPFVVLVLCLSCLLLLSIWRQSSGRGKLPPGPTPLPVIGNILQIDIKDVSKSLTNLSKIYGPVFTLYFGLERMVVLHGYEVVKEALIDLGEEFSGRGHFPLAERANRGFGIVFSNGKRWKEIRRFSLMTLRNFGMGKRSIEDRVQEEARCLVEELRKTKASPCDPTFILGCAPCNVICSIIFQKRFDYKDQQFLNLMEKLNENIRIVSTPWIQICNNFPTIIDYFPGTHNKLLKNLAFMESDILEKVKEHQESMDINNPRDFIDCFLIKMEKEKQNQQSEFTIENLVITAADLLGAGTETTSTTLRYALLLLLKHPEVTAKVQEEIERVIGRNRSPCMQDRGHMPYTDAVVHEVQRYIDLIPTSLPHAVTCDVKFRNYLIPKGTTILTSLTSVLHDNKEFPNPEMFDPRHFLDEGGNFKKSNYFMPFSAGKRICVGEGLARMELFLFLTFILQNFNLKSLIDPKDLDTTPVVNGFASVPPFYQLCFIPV
# Cytochrome P450 2C9, sequence (P11712 whole entry): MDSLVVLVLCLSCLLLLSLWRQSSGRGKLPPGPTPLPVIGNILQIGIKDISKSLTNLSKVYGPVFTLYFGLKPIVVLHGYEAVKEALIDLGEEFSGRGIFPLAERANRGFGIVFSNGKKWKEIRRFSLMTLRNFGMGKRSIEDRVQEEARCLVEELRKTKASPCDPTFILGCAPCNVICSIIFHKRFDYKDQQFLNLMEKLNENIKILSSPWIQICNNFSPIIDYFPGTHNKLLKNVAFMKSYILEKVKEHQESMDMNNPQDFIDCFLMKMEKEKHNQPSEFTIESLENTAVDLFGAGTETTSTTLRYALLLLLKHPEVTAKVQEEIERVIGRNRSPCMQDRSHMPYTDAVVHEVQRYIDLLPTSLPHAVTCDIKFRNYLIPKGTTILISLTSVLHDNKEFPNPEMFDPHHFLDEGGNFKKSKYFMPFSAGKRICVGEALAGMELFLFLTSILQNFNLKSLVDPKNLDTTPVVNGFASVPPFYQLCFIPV
# Cytochrome P450 3A4, sequence (P08684 whole entry): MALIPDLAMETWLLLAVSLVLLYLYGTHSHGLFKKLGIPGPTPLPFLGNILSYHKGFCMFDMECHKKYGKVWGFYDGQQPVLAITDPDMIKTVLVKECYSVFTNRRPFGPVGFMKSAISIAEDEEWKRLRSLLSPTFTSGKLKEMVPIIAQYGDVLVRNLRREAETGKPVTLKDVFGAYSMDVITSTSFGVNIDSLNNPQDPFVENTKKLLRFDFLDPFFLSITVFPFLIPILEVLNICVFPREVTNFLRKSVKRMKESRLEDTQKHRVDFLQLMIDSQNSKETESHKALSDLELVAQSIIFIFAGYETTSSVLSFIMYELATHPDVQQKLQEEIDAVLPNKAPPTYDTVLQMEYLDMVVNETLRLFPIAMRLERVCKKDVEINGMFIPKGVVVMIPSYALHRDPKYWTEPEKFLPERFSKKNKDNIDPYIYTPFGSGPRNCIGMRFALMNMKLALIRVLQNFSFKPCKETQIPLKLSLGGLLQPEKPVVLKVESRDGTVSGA
# Cytochrome P450 2D6, sequence (P10635 whole entry): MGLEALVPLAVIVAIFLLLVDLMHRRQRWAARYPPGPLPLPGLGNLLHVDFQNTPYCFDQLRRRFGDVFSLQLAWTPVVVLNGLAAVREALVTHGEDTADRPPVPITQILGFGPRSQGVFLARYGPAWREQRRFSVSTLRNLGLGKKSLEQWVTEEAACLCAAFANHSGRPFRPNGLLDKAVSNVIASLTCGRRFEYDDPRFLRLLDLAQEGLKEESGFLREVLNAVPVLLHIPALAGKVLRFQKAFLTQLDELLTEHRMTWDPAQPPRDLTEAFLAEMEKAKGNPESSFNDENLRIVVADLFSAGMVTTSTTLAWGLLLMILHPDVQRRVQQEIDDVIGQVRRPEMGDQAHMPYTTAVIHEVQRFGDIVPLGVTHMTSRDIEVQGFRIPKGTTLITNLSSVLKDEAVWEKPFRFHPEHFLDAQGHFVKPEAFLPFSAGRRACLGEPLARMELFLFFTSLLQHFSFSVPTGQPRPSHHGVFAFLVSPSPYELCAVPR
smiles,measurement,setting,value
Cc1ccc(-c2cc(C(F)(F)F)ccc2OCc2ccccc2)n1-c1cc(C(=O)O)ccc1F,IC50,[1],6.31 nM
CC(=O)Nc1cc(C(=O)O)cc(-n2c(C)ccc2-c2cc(Cl)ccc2OCc2ccc(F)cc2)c1,AUC,Rattus norvegicus [2],20 kg·min/L
same,Cmax,[3],2080 nM
same,IC50,[1],2.51 nM
same,Activity,Rattus norvegicus [4],94%
same,Tmax,[5],30 min
Cc1ccc(-c2cc(Br)ccc2OCc2ccc(F)cc2F)n1-c1cc(C(=O)O)cc(C(F)(F)F)c1,IC50,[1],12.6 nM
Cc1ccc(-c2cc(Cl)ccc2OCc2ccc(F)cc2F)n1-c1cc(Cl)cc(C(=O)O)c1,IC50,[1],3.98 nM
Cc1ccc(-c2cc(Br)ccc2OCc2ccccc2)n1-c1cc(N)cc(C(=O)O)c1,IC50,[1],3.16 nM
CCOc1ccc(C(=O)O)cc1-n1c(C)ccc1-c1cc(Cl)ccc1OCc1ccccc1,IC50,[1],126 nM
Cc1ccc(-c2cc(Br)ccc2OCc2ccc(F)cc2F)n1-c1cc(Cl)cc(C(=O)O)c1,IC50,[1],3.98 nM
Cc1ccc(-c2cc(Br)ccc2OCc2ccc(F)cc2F)n1-c1cc(C(=O)O)cc(N2CCCCC2=O)c1,IC50,[1],1.26 nM
Cc1ccc(-c2cc(Cl)ccc2OCc2ccc(F)cc2F)n1-c1cc(C(=O)O)ccc1F,AUC,Rattus norvegicus [2],4 kg·min/L
same,Cmax,[3],230 nM
same,IC50,[1],6.31 nM
same,Tmax,[5],30 min
Cc1ccc(-c2cc(C(F)(F)F)ccc2OCc2ccc(F)cc2)n1-c1cc(C(=O)O)cc(N2CCCS2(=O)=O)c1,IC50,[1],7.94 nM
COC(=O)Nc1cc(C(=O)O)cc(-n2c(C)ccc2-c2cc(Cl)ccc2OCc2ccccc2)c1,IC50,[1],5.01 nM
Cc1ccc(-c2cc(Cl)ccc2OCc2ccc(F)cc2F)n1-c1cc(Br)cc(C(=O)O)c1,IC50,[1],5.01 nM
Cc1ccc(-c2cc(Cl)ccc2OCc2ccc(F)cc2)n1-c1cc(NS(C)(=O)=O)cc(C(=O)O)c1,IC50,[1],1.58 nM
Cc1ccc(-c2cc(Br)ccc2OCc2ccc(F)cc2)n1-c1cc(C(=O)O)ccc1F,AUC,Rattus norvegicus [2],6 kg·min/L
same,Cmax,[3],230 nM
same,IC50,[1],6.31 nM
same,Tmax,[5],30 min
Cc1ccc(-c2cc(Cl)ccc2OCc2ccc(F)cc2F)n1-c1cc(C(=O)O)ccc1Cl,IC50,[1],158 nM
Cc1ccc(-c2cc(Br)ccc2OCc2ccc(F)cc2F)n1-c1cc(N)cc(C(=O)O)c1,AUC,Rattus norvegicus [2],< 1 kg·min/L
same,Cmax,[3],50 nM
same,IC50,[1],0.501 nM
same,Tmax,[5],30 min
COc1ccc(C(=O)O)cc1-n1c(C)ccc1-c1cc(Cl)ccc1OCc1ccccc1,IC50,[1],251 nM
CC(=O)Nc1cc(C(=O)O)cc(-n2c(C)ccc2-c2cc(I)ccc2OCc2ccc(F)cc2F)c1,IC50,[1],1.58 nM
CC(=O)Nc1cc(C(=O)O)cc(-n2c(C)ccc2-c2cc(Br)ccc2OCc2ccc(F)cc2)c1,IC50,[1],0.794 nM
Cc1ccc(-c2cc(Br)ccc2OCc2ccc(F)cc2F)n1-c1cc(C(=O)O)cc(N2CCCC2=O)c1,IC50,[1],2 nM
CC(=O)N(C)c1cc(C(=O)O)cc(-n2c(C)ccc2-c2cc(Br)ccc2OCc2ccc(F)cc2F)c1,IC50,[1],1.26 nM
Cc1ccc(-c2cc(Cl)ccc2OCc2ccc(F)cc2F)n1-c1cc(C(=O)O)cc(C(F)(F)F)c1,IC50,[1],10 nM
Cc1ccc(-c2cc(Cl)ccc2OCc2ccccc2)n1-c1cc(N)cc(C(=O)O)c1,IC50,[1],3.98 nM
CC(=O)Nc1cc(C(=O)O)cc(-n2c(C)ccc2-c2cc(Cl)ccc2OCc2ccccc2)c1,AUC,Rattus norvegicus [2],8 kg·min/L
same,Cmax,[3],580 nM
same,IC50,[1],2 nM
same,Tmax,[5],30 min
CC(=O)Nc1cc(C(=O)O)cc(-n2c(C)ccc2-c2cc(Br)ccc2OCc2ccc(F)cc2F)c1,IC50,Cytochrome P450 2D6,≥ 18000 nM
same,IC50,Thromboxane A2 receptor,2.51 nM
same,AUC,Rattus norvegicus [2],21 kg·min/L
same,IC50,Cytochrome P450 2C9,≥ 18000 nM
same,ED50,Rattus norvegicus [6],1.1 mg/kg
same,Cmax,[3],1410 nM
same,IC50,[1],0.398 nM
same,IC50,Cytochrome P450 2C19,≥ 18000 nM
same,pKb,[7],9
same,Ki,[8],0.1 nM
same,IC50,[9],158 nM
same,Activity,Rattus norvegicus [4],72%
same,Ki,[10],501 nM
same,IC50,Cytochrome P450 3A4,≥ 18000 nM
same,IC50,Cytochrome P450 1A2,≥ 18000 nM
same,Tmax,[5],30 min
CC(=O)Nc1cc(C(=O)O)cc(-n2c(C)ccc2-c2cc(F)ccc2OCc2ccc(F)cc2)c1,AUC,Rattus norvegicus [2],60 kg·min/L
same,Cmax,[3],2950 nM
same,IC50,[1],3.98 nM
same,Activity,Rattus norvegicus [4],55%
same,Tmax,[5],30 min
CC(=O)Nc1cc(C(=O)O)cc(-n2c(C)ccc2-c2cc(C(F)(F)F)ccc2OCc2ccccc2)c1,Cmax,[3],20 nM
same,IC50,[1],1.26 nM
same,Tmax,[5],42 min
Cc1ccc(-c2cc(Cl)ccc2OCc2ccc(F)cc2)n1-c1cc(C(=O)O)ccc1Cl,IC50,[1],316 nM
Cc1ccc(-c2cc(Cl)ccc2OCc2ccccc2)n1-c1cc(Br)cc(C(=O)O)c1,AUC,Rattus norvegicus [2],6 kg·min/L
same,Cmax,[3],310 nM
same,IC50,[1],5.01 nM
same,Tmax,[5],30 min
Cc1ccc(-c2cc(Cl)ccc2OCc2ccccc2)n1-c1cc(C(=O)O)cc(N2CCCS2(=O)=O)c1,IC50,[1],5.01 nM
CC(=O)Nc1cc(C(=O)O)cc(-n2c(C)ccc2-c2cc(Br)ccc2OCc2ccccc2)c1,IC50,[1],1.26 nM
